Paper PMC10041525, “New Dual Inhibitors of Bacterial Topoisomerases with Broad-Spectrum Antibacterial Activity and In Vivo Efficacy against Vancomycin-Intermediate Staphylococcus aureus” (Journal of Medicinal Chemistry, 2023)
Converted amounts (≈) assume the structure as drawn. Like-named read-outs stand apart in the source and are kept apart here.

What was measured:
E. faecalis ATCC 29212 [1] = test system: E. faecalis ATCC 29212; design: method as in earlier work; settings: QC range for E. faecalis ATCC 29212, ref CLSI; cited from earlier work
H. influenzae ATCC 49766 = experiment: IHMA QC MIC; assay type: cell-based
Excerpt: (§1) Supplement jm2c01905_si_004.xlsx, sheet "QC" | column: MIC [µg/mL]

E. faecalis ATCC 29212 [2] = experiment: IHMA QC MIC; assay type: cell-based
Excerpt: as §1

H. influenzae ATCC 49247 = experiment: IHMA QC MIC; assay type: cell-based; settings: Haemophilus influenzae, read-out: MIC
Excerpt: as §1

S. pneumoniae ATCC 49619 = experiment: IHMA QC MIC; assay type: cell-based
Excerpt: as §1

E. coli ATCC 25922 = experiment: IHMA QC MIC; assay type: cell-based; settings: Escherichia coli, read-out: MIC

MIC (H. influenzae ATCC 49766; Haemophilus influenzae, ATCC49766, QC strain H. influenzae ATCC 49766, test date 2021-11-11, read-out: MIC): 0.12 µg/mL (≈ 0.343 µM) | MIC (H. influenzae ATCC 49766; QC strain H. influenzae ATCC 49766, test date 2021-11-26): 0.12 µg/mL (≈ 0.343 µM) | MIC (E. faecalis ATCC 29212 [2]; Enterococcus faecalis, ATCC29212, QC strain E. faecalis ATCC 29212, test date 2021-11-11, read-out: MIC): 1 µg/mL (≈ 2.86 µM) | MIC (E. faecalis ATCC 29212 [2]; QC strain E. faecalis ATCC 29212, test date 2021-11-26): 1 µg/mL (≈ 2.86 µM) | MIC (H. influenzae ATCC 49247; ATCC49247, QC strain H. influenzae ATCC 49247, test date 2021-11-11): 4 µg/mL (≈ 11.4 µM) | MIC (H. influenzae ATCC 49247; ATCC49247, QC strain H. influenzae ATCC 49247, test date 2021-11-26): 4 µg/mL (≈ 11.4 µM) | MIC (S. pneumoniae ATCC 49619; QC strain S. pneumoniae ATCC 49619, test date 2021-11-26): 0.06 µg/mL (≈ 0.172 µM) | MIC (S. pneumoniae ATCC 49619; Streptococcus pneumoniae, ATCC49619, QC strain S. pneumoniae ATCC 49619, test date 2021-11-11, read-out: MIC): 0.06 µg/mL (≈ 0.172 µM) | MIC (E. coli ATCC 25922; ATCC25922, QC strain E. coli ATCC 25922, test date 2021-11-11): 8 µg/mL (≈ 22.9 µM) | MIC (E. coli ATCC 25922; ATCC25922, QC strain E. coli ATCC 25922, test date 2021-11-26): 4 µg/mL (≈ 11.4 µM)
Structure (SMILES): CC1(C)S[C@@H]2[C@H](NC(=O)[C@H](N)c3ccccc3)C(=O)N2[C@H]1C(=O)O [Ampicillin, ampicillin]
MIC, CLSI Range (E. faecalis ATCC 29212 [1]): 0,5 - 2 µg/mL
